Measured values published in PubChem BioAssay AID248 (DTP/NCI, 2004).
“And” between values parts separate entries of the source, which are not always exact repeats. Equal entries are not always repeated. Toxic doses and inconclusive results are not listed.

System: L1210 leukemia ip in BDF1 mice, survival T/C
Assay: NCI In Vivo Anticancer Drug Screen. Data for tumor model L1210 Leukemia (intraperitoneal) in B6D2F1 (BDF1) mice
Settings: higher = longer survival
In short: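 Mice bearing the transplanted tumor received compound or vehicle. Survival of the treated group was divided by that of the vehicle-treated control group to give the ratio.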

In the case of `N[C@H](C(=O)O)[C@@H]1CC(Cl)=NO1`, the T/C (endpoint: mean survival time, dose: 0.1 mg/kg/injection, schedule: Q03HX024 (ip), vehicle: saline) is reported as 120 % of control, the T/C (endpoint: mean survival time, dose: 0.39 mg/kg/injection, schedule: Q01DX009 (sc), vehicle: saline) is reported as 119 % of control and 121 % of control and the T/C (endpoint: mean survival time, dose: 0.39 mg/kg/injection, schedule: Q03HX024 (ip), vehicle: saline) is reported as 194 % of control. The T/C (endpoint: mean survival time, dose: 0.78 mg/kg/injection, schedule: Q01DX009 (oral), vehicle: saline) was 123 % of control, the T/C (endpoint: mean survival time, dose: 1.0 mg/kg/injection, schedule: Q01DX009 (ip), vehicle: saline) was 123 % of control and 124 % of control and the T/C (endpoint: mean survival time, dose: 1.56 mg/kg/injection, schedule: Q01DX009 (oral), vehicle: saline) was 151 % of control. For the same compound, the T/C (endpoint: mean survival time, dose: 3.12 mg/kg/injection, schedule: Q01DX001 (ip), vehicle: saline) was 107 % of control, the T/C (endpoint: mean survival time, dose: 3.12 mg/kg/injection, schedule: Q04DX003 (ip), vehicle: saline) was 107 % of control and the T/C (endpoint: mean survival time, dose: 4.0 mg/kg/injection, schedule: Q01DX009 (ip), vehicle: saline) was 152 % of control. For the same compound, the T/C (endpoint: mean survival time, dose: 6.2 mg/kg/injection, schedule: Q04DX003 (ip), vehicle: saline) was 115 % of control and 116 % of control, the T/C (endpoint: mean survival time, dose: 6.25 mg/kg/injection, schedule: Q01DX001 (ip), vehicle: saline) was 112 % of control and the T/C (endpoint: mean survival time, dose: 6.25 mg/kg/injection, schedule: Q01DX009 (oral), vehicle: saline) was 107 % of control and 110 % of control. For the same compound, the T/C (endpoint: mean survival time, dose: 6.25 mg/kg/injection, schedule: Q01DX009 (sc), vehicle: saline) was 105 % of control, the T/C (endpoint: mean survival time, dose: 12.5 mg/kg/injection, schedule: Q01DX001 (ip), vehicle: saline) was 119 % of control and the T/C (endpoint: mean survival time, dose: 12.5 mg/kg/injection, schedule: Q01DX009 (sc), vehicle: saline) was 101 % of control. For the same compound, the T/C (endpoint: mean survival time, dose: 12.5 mg/kg/injection, schedule: Q04DX003 (ip), vehicle: saline) was 109 % of control and 110 % of control, the T/C (endpoint: mean survival time, dose: 16.0 mg/kg/injection, schedule: Q01DX009 (ip), vehicle: saline) was 102 % of control and the T/C (endpoint: mean survival time, dose: 25.0 mg/kg/injection, schedule: Q01DX009 (sc), vehicle: saline) was 94 % of control and 95 % of control. The T/C (endpoint: mean survival time, dose: 25.0 mg/kg/injection, schedule: Q03HX008 (ip), vehicle: saline) was 153 % of control, the T/C (endpoint: mean survival time, dose: 25.0 mg/kg/injection, schedule: Q04DX003 (ip), vehicle: saline) was 116 % of control and 120 % of control and the T/C (endpoint: mean survival time, dose: 32.0 mg/kg/injection, schedule: Q01DX009 (ip), vehicle: saline) was 104 % of control and 115 % of control. For the same compound, the T/C (endpoint: mean survival time, dose: 50.0 mg/kg/injection, schedule: Q04DX003 (ip), vehicle: saline) was 120 % of control and 123 % of control, the T/C (endpoint: median survival time, dose: 0.25 mg/kg/injection, schedule: Q03HX024 (ip), vehicle: saline) was 117 % of control and the T/C (endpoint: median survival time, dose: 0.39 mg/kg/injection, schedule: Q03HX024 (ip), vehicle: saline) was 175 % of control. The T/C (endpoint: median survival time, dose: 0.5 mg/kg/injection, schedule: Q03HX016 (ip), vehicle: saline) was 124 % of control, the T/C (endpoint: median survival time, dose: 0.78 mg/kg/injection, schedule: Q01DX009 (ip), vehicle: saline) was 153 % of control and the T/C (endpoint: median survival time, dose: 0.78 mg/kg/injection, schedule: Q03HX016 (ip), vehicle: saline) was 150 % of control. For the same compound, the T/C (endpoint: median survival time, dose: 0.78 mg/kg/injection, schedule: Q03HX024 (ip), vehicle: saline) was 191 % of control, the T/C (endpoint: median survival time, dose: 1.0 mg/kg/injection, schedule: Q01DX009 (sc), vehicle: saline) was 122 % of control and the T/C (endpoint: median survival time, dose: 1.0 mg/kg/injection, schedule: Q03HX008 (ip), vehicle: saline) was 120 % of control. For the same compound, the T/C (endpoint: median survival time, dose: 1.0 mg/kg/injection, schedule: Q03HX024 (ip), vehicle: saline) was 159 % of control, the T/C (endpoint: median survival time, dose: 1.56 mg/kg/injection, schedule: Q03HX016 (ip), vehicle: saline) was 159 % of control and the T/C (endpoint: median survival time, dose: 2.0 mg/kg/injection, schedule: Q03HX016 (ip), vehicle: saline) was 150 % of control. For the same compound, the T/C (endpoint: median survival time, dose: 2.0 mg/kg/injection, schedule: Q03HX024 (ip), vehicle: saline) was 181 % of control, the T/C (endpoint: median survival time, dose: 2.0 mg/kg/injection, schedule: Q04DX003 (ip), vehicle: saline) was 106 % of control and the T/C (endpoint: median survival time, dose: 3.12 mg/kg/injection, schedule: Q01DX009 (ip), vehicle: saline) was 94 % of control. The T/C (endpoint: median survival time, dose: 3.12 mg/kg/injection, schedule: Q03HX008 (ip), vehicle: saline) was 154 % of control, the T/C (endpoint: median survival time, dose: 3.12 mg/kg/injection, schedule: Q03HX016 (ip), vehicle: saline) was 166 % of control and the T/C (endpoint: median survival time, dose: 4.0 mg/kg/injection, schedule: Q01DX009 (ip), vehicle: saline) was 158 % of control. For the same compound, the T/C (endpoint: median survival time, dose: 4.0 mg/kg/injection, schedule: Q03HX016 (ip), vehicle: saline) was 153 % of control, the T/C (endpoint: median survival time, dose: 4.0 mg/kg/injection, schedule: Q04DX003 (ip), vehicle: saline) was 110 % of control and the T/C (endpoint: median survival time, dose: 4.0 mg/kg/injection, schedule: Q08DX002 (ip), vehicle: saline) was 104 % of control. For the same compound, the T/C (endpoint: median survival time, dose: 6.25 mg/kg/injection, schedule: Q03HX016 (ip), vehicle: saline) was 182 % of control, the T/C (endpoint: median survival time, dose: 8.0 mg/kg/injection, schedule: Q01DX001 (ip), vehicle: saline) was 100 % of control and the T/C (endpoint: median survival time, dose: 8.0 mg/kg/injection, schedule: Q01DX001 (sc), vehicle: saline) was 114 % of control. For the same compound, the T/C (endpoint: median survival time, dose: 8.0 mg/kg/injection, schedule: Q01DX009 (ip), vehicle: saline) was 165 % of control, the T/C (endpoint: median survival time, dose: 8.0 mg/kg/injection, schedule: Q01DX009 (sc), vehicle: saline) was 162 % of control and the T/C (endpoint: median survival time, dose: 8.0 mg/kg/injection, schedule: Q03HX016 (ip), vehicle: saline) was 162 % of control. The T/C (endpoint: median survival time, dose: 8.0 mg/kg/injection, schedule: Q08DX002 (ip), vehicle: saline) was 114 % of control, the T/C (endpoint: median survival time, dose: 12.5 mg/kg/injection, schedule: Q01DX001 (ip), vehicle: saline) was 115 % of control and the T/C (endpoint: median survival time, dose: 12.5 mg/kg/injection, schedule: Q03HX016 (ip), vehicle: saline) was 171 % of control. The T/C (endpoint: median survival time, dose: 12.5 mg/kg/injection, schedule: Q03HX024 (ip), vehicle: saline) was 93 % of control, the T/C (endpoint: median survival time, dose: 12.5 mg/kg/injection, schedule: Q04DX003 (ip), vehicle: saline) was 153 % of control and the T/C (endpoint: median survival time, dose: 12.5 mg/kg/injection, schedule: Q08DX002 (ip), vehicle: saline) was 151 % of control. For the same compound, the T/C (endpoint: median survival time, dose: 16.0 mg/kg/injection, schedule: Q01DX001 (ip), vehicle: saline) was 99 % of control, the T/C (endpoint: median survival time, dose: 16.0 mg/kg/injection, schedule: Q01DX001 (sc), vehicle: saline) was 105 % of control and the T/C (endpoint: median survival time, dose: 16.0 mg/kg/injection, schedule: Q01DX009 (oral), vehicle: saline) was 94 % of control. The T/C (endpoint: median survival time, dose: 16.0 mg/kg/injection, schedule: Q01DX009 (sc), vehicle: saline) was 109 % of control, the T/C (endpoint: median survival time, dose: 16.0 mg/kg/injection, schedule: Q03HX016 (ip), vehicle: saline) was 155 % of control and the T/C (endpoint: median survival time, dose: 16.0 mg/kg/injection, schedule: Q04DX003 (ip), vehicle: saline) was 120 % of control. For the same compound, the T/C (endpoint: median survival time, dose: 16.0 mg/kg/injection, schedule: Q08DX002 (ip), vehicle: saline) was 106 % of control, the T/C (endpoint: median survival time, dose: 25.0 mg/kg/injection, schedule: Q01DX001 (ip), vehicle: saline) was 108 % of control and the T/C (endpoint: median survival time, dose: 25.0 mg/kg/injection, schedule: Q04DX003 (ip), vehicle: saline) was 154 % of control. The T/C (endpoint: median survival time, dose: 32.0 mg/kg/injection, schedule: Q01DX001 (ip), vehicle: saline) was 113 % of control, the T/C (endpoint: median survival time, dose: 32.0 mg/kg/injection, schedule: Q01DX001 (sc), vehicle: saline) was 107 % of control and the T/C (endpoint: median survival time, dose: 32.0 mg/kg/injection, schedule: Q01DX009 (ip), vehicle: saline) was 103 % of control. The T/C (endpoint: median survival time, dose: 32.0 mg/kg/injection, schedule: Q08DX002 (ip), vehicle: saline) was 114 % of control, the T/C (endpoint: median survival time, dose: 50.0 mg/kg/injection, schedule: Q01DX001 (ip), vehicle: saline) was 122 % of control and the T/C (endpoint: median survival time, dose: 50.0 mg/kg/injection, schedule: Q04DX003 (ip), vehicle: saline) was 188 % of control. For the same compound, the T/C (endpoint: median survival time, dose: 50.0 mg/kg/injection, schedule: Q08DX002 (ip), vehicle: saline) was 151 % of control, the T/C (endpoint: median survival time, dose: 64.0 mg/kg/injection, schedule: Q01DX001 (ip), vehicle: saline) was 113 % of control and the T/C (endpoint: median survival time, dose: 64.0 mg/kg/injection, schedule: Q01DX001 (oral), vehicle: saline) was 112 % of control and 114 % of control. For the same compound, the T/C (endpoint: median survival time, dose: 64.0 mg/kg/injection, schedule: Q01DX001 (sc), vehicle: saline) was 116 % of control, the T/C (endpoint: median survival time, dose: 64.0 mg/kg/injection, schedule: Q08DX002 (ip), vehicle: saline) was 109 % of control and the T/C (endpoint: median survival time, dose: 128.0 mg/kg/injection, schedule: Q01DX001 (ip), vehicle: saline) was 116 % of control. For the same compound, the T/C (endpoint: median survival time, dose: 128.0 mg/kg/injection, schedule: Q01DX001 (oral), vehicle: saline) was 119 % of control, the T/C (endpoint: median survival time, dose: 128.0 mg/kg/injection, schedule: Q01DX001 (sc), vehicle: saline) was 115 % of control and the T/C (endpoint: median survival time, dose: 128.0 mg/kg/injection, schedule: Q08DX002 (ip), vehicle: saline) was 119 % of control. For the same compound, the T/C (endpoint: median survival time, dose: 256.0 mg/kg/injection, schedule: Q01DX001 (ip), vehicle: saline) was 110 % of control, the T/C (endpoint: median survival time, dose: 256.0 mg/kg/injection, schedule: Q01DX001 (oral), vehicle: saline) was 116 % of control and the T/C (endpoint: median survival time, dose: 256.0 mg/kg/injection, schedule: Q01DX001 (sc), vehicle: saline) was 120 % of control. For the same compound, the T/C (endpoint: median survival time, dose: 400.0 mg/kg/injection, schedule: Q01DX001 (ip), vehicle: saline) was 93 % of control and the T/C (endpoint: median survival time, dose: 400.0 mg/kg/injection, schedule: Q08DX002 (ip), vehicle: saline) was 116 % of control.
With `N#C/C(=C/c1cccc2ccccc12)C(N)=O` the T/C (endpoint: mean survival time, dose: 100.0 mg/kg/injection, schedule: Q04DX002 (ip), vehicle: saline with Tween-80) was 98 % of control, the T/C (endpoint: mean survival time, dose: 200.0 mg/kg/injection, schedule: Q04DX002 (ip), vehicle: saline with Tween-80) was 91 % of control and the T/C (endpoint: mean survival time, dose: 400.0 mg/kg/injection, schedule: Q04DX002 (ip), vehicle: saline with Tween-80) was 98 % of control.
